The results in this text go back to BindingDB's records for doi:10.1021/acsmedchemlett.8b00576 (Usona Institute, 2019).

The assay deals with GTPase KRas (Homo sapiens, UniProt P01116). As to the kind of experiment: Inhibition of GDP loaded biotin-labeled KRAS G12C mutant (unknown origin) assessed as reduction in guanine nucleotide exchange preincubated for 4 hrs followed by GST-RAF-RBD addition in presence of GTPgammaS by FRET assay.
Chain of GTPase KRas (P01116 whole entry G12C): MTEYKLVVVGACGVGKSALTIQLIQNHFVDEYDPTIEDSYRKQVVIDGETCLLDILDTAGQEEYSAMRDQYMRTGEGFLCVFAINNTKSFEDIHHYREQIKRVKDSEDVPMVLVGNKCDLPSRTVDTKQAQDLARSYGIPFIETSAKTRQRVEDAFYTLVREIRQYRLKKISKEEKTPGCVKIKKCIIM

As to `C=CC(=O)N1CCN2c3nc(N4CC(N(C)C)C4)nc4cc(-c5c(C)ccc6[nH]ncc56)c(Cl)c(c34)OC[C@@H]2C1`, the IC50 amounted to 21 nM.

Broadly, the IC50 is the concentration needed to halve the response being measured.
